ChEMBL document CHEMBL1201862, “PubChem BioAssay data set” (2004)
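Test compounds were applied to cells in 96-well plates for 48 hours at 5 doses. GI50 is the concentration that inhibits growth by half.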 The source made the active and inactive calls. Cut-off read from the data, not from the text of the source: active = GI50 up to about 1.1 µM and inactive = higher.

How the values were obtained:
Experiment in all cases: NCI tumour cell line growth inhibition, 48 h
HCT-116 = system: HCT-116
NCI-H522 = system: NCI-H522
RPMI-8226 = system: RPMI-8226
CAKI-1 = system: CAKI-1
SK-OV-3 = system: SK-OV-3
CCRF-CEM = system: CCRF-CEM
HCC 2998 = system: HCC 2998
SNB-75 = system: SNB-75
OVCAR-5 = system: OVCAR-5
NCI-H460 = system: NCI-H460
NCI-H226 = system: NCI-H226
UO-31 = system: UO-31
SF-268 = system: SF-268
M14 = system: M14
Malme-3M = system: Malme-3M
RXF 393 = system: RXF 393
A549 = system: A549
HL-60 = system: HL-60
NCI/ADR-RES = system: NCI/ADR-RES
MOLT-4 = system: MOLT-4

Measured: GI50

CCOC(=O)NC(C(F)(F)F)(C(F)(F)F)P(=O)(OCC(C)C)OCC(C)C
inactive: HCT-116 2.55 µM | NCI-H522 2.49 µM | RPMI-8226 14.4 µM | CAKI-1 27.9 µM | SK-OV-3 13.7 µM | CCRF-CEM 2.67 µM | HCC 2998 34.6 µM | SNB-75 23.6 µM | OVCAR-5 18.6 µM | NCI-H460 19.2 µM | NCI-H226 13.9 µM | UO-31 7.35 µM | SF-268 11.1 µM | M14 11.6 µM | Malme-3M 16.2 µM | RXF 393 11.3 µM | A549 22.3 µM | HL-60 2.97 µM | NCI/ADR-RES 5.05 µM

COc1ccc(CN2C(=O)C(=O)N(C)C2=O)c2ccccc12
inactive: HCT-116 > 10 µM | MOLT-4 > 10 µM | NCI-H522 9.68 µM | RPMI-8226 > 10 µM | CAKI-1 > 10 µM | SK-OV-3 > 10 µM | CCRF-CEM > 10 µM | HCC 2998 > 10 µM | SNB-75 > 10 µM | OVCAR-5 > 10 µM | NCI-H460 > 10 µM | NCI-H226 > 10 µM | UO-31 > 10 µM | SF-268 > 10 µM | M14 > 10 µM | Malme-3M > 10 µM | RXF 393 > 10 µM | A549 > 10 µM | HL-60 > 10 µM | NCI/ADR-RES > 10 µM

C=CCCCCCCCCC(=O)O [UNDECYLENIC ACID]
inactive: HCT-116 110 µM | MOLT-4 110 µM | NCI-H522 105 µM | RPMI-8226 129 µM | CAKI-1 106 µM | SK-OV-3 138 µM | CCRF-CEM 128 µM | HCC 2998 108 µM | SNB-75 168 µM | OVCAR-5 145 µM | NCI-H460 94.2 µM | NCI-H226 155 µM | UO-31 80.7 µM | SF-268 91 µM | Malme-3M 142 µM | RXF 393 93.1 µM | A549 103 µM | HL-60 101 µM | NCI/ADR-RES 172 µM
